Where “and” joins values, the source holds several entries; their conditions need not be identical. Equal values may be shown once. Where a name gives a salt, the structure may show the parent alone. Read-outs that look alike come from different tables or passages of the source.
What was measured:
[1] = Azoxystrobin dissolved in organic liquid, diluted with 20 volumes of water, visual assessment of layers or crystals; assay type: physicochemical; details: water 20 times the solvent volume, assessed visually at 48 hours
Protocol: Azoxystrobin was dissolved in a range of organic liquids, some of which are known to be solvents for agrochemicals, at room temperature and allowed to equilibrate. A measured quantity of water was added and each mixture was shaken. The volume of water was 20 times greater than the volume of organic liquid/solvent. After settling the samples were assessed as being either (i) split into two layers with no evidence of pesticide crystalisation, or (ii) identified as a single layer where the pesticide had precipitated out as crystals.
Samples were assessed after 24 and 48 hours. The log P octanol values for the solvents have been taken from the literature or, where this value was not available, were estimated using the program ProPred™ (ICAS ProPred™, KT Consortium, DTU Kemiteknik, Lyngby, Denmark). Where values were estimated, a simple check was carried out using measuring cylinders with 50/50 volumes of octanol and water. Solvent was added to the cylinder until a clear observation of the effect of the addition was apparent.

[2] = solvents of Table 2/3; literature, or estimated with ProPred where not available; cited from earlier work
[3] = Aqueous solubility of gamma caprolactone by HPLC; assay type: physicochemical; details: calculated mean of a set of six measurements
Protocol: The aqueous solubility of gamma caprolactone was measured using HPLC chromatography. Several samples of the lactone were equilibrated at room temperature with an equal volume of water. The samples were left for two weeks then analysed by HPLC.

[4] = log P octanol by octanol saturated chromatography column; assay type: physicochemical; details: octanol/water (octanol saturated chromatography column); 25° C., pH 6.98; read-out: octanol water partition coefficient (log P octanol)
From the text: Samples of gamma caprolactone were examined using an octanol saturated chromatography column.

[5] = 5% w/w solutions of agrochemicals in solvent diluted into water 20:1, appearance; assay type: physicochemical; details: for APPEARANCE OF FORMULATION, Difenoconazole: 5% w/w difenoconazole in solvent; for APPEARANCE OF FORMULATION, Difenoconazole / APPEARANCE OF FORMULATION, Fludioxonil / APPEARANCE OF FORMULATION, Mandipropamid / APPEARANCE OF FORMULATION, Pinoxaden: diluted into water 20:1; for APPEARANCE OF FORMULATION, Fludioxonil: 5% w/w fludioxonil in solvent; for APPEARANCE OF FORMULATION, Mandipropamid: 5% w/w mandipropamid in solvent; for APPEARANCE OF FORMULATION, Pinoxaden: 5% w/w pinoxaden in solvent; for appearance with each of the agrochemical active ingredients: mandipropamid, fludioxonil, pinoxaden, difenoconazole, 5% w/w, diluted 20:1
Protocol: In this example several pesticidally active agrochemical ingredients (mandipropamid, fludioxonil, pinoxaden, and difenoconazole) were dissolved in each of the three solvents to give solutions of 5% w/w. Each solution was then diluted into water to form a 20:1 mixture.

[6] = Azoxystrobin dissolved in organic liquid, diluted with 20 volumes of water, visual assessment of layers or crystals; assay type: physicochemical
[7] = 20° C.; cited from earlier work

Molecule | APPEARANCE (azoxystrobin solution in solvent after addition of water) [1] | logP octanol [2] | further results
CCCCOC(=O)c1ccccc1 [Butyl benzoate] | 2 layer | – | –
CC1CCC(=O)O1 (stereo not drawn) [γ-Valerolactone] | Crystallised | 0.21 | –
CCC1CCC(=O)O1 (stereo not drawn) [γ-Caprolactone, 5-ethyltetrahydrofuran-2-one] | – | – | Aqueous solubility, Mean [3]: 10.93 % w/w and 11.01 % w/w; chromatographic logP [4]: 0.34; APPEARANCE OF FORMULATION, Difenoconazole [5]: 2 layers; APPEARANCE OF FORMULATION, Fludioxonil [5]: 2 layers; APPEARANCE OF FORMULATION, Mandipropamid [5]: 2 layer; APPEARANCE OF FORMULATION, Pinoxaden [5]: 2 layers; appearance with each of the agrochemical active ingredients [5]: two-layer system; appearance after further 100-fold dilution in water [6]: two layers still did not become miscible
CCOP(=O)(OCC)OCC [Triethyl phosphate] | Crystallised | 0.28 | –
Diethylene carbonate | – | – | APPEARANCE (azoxystrobin solution in solvent after addition of water) [6]: 2 layer
O=C1CCCCO1 [δ-Valerolactone] | Crystallised | −0.26 | –
CCCOC(=O)c1ccccc1 [Propyl benzoate] | 2 layer | – | –
COC(C)COC(C)CO (stereo not drawn) [Dipropylene glycol monomethyl ether] | Crystallised | – | –
Butylene carbonate | 2 layer | 1.21 | –
OCCO [Ethylene glycol] | – | – | APPEARANCE (azoxystrobin solution in solvent after addition of water) [6]: Crystallised
O=C1CCCO1 [γ-Butyrolactone] | Crystallised | −0.60 | –
COC(=O)c1ccccc1 [Methyl benzoate] | 2 layer | 1.85 | –
CCOC(=O)/C=C/C(=O)OCC [Diethyl fumarate] | 2 layer | – | –
Hexylene glycol | Crystallised | – | APPEARANCE OF FORMULATION, Difenoconazole [5]: Crystallised; APPEARANCE OF FORMULATION, Fludioxonil [5]: Crystallised; APPEARANCE OF FORMULATION, Mandipropamid [5]: Crystallised; APPEARANCE OF FORMULATION, Pinoxaden [5]: Crystallised; appearance with each of the agrochemical active ingredients [5]: crystallisation; miscibility with water [7]: fully miscible
OCc1ccccc1 [Benzyl alcohol] | 2 layer | – | –
CC(=O)c1ccccc1 [Acetophenone] | 2 layer | – | –
COC(=O)C(C)O (stereo not drawn) [Methyl lactate] | Crystallised | – | –
O=C1CCCCCO1 [ε-Caprolactone] | Crystallised | 0.70 | –
CC(=O)OCC(C)OC(C)=O (stereo not drawn) [Propylene glycol diacetate] | Crystallised | 0.94 | –
OC1CCCCC1 [Cyclohexanol] | 2 layer | – | –
CCCCOCC(C)O (stereo not drawn) [Propylene glycol n-butyl ether] | 2 layer | – | –
CCCOC(=O)C(C)O (stereo not drawn) [Propyl lactate] | 2 layer | – | –
CC(=O)OCC(COC(C)=O)OC(C)=O [Triacetin] | 2 layer | – | –
CCCCCCOCCOCCO [Diethylene glycol hexyl ether] | 2 layer | 2.16 | –
CC(O)C(=O)N(C)C (stereo not drawn) [Dimethyl lactamide] | Crystallised | −0.22 | –

Source: US20200205401A1, “LACTONES AS SOLVENTS IN AGROCHEMICAL FORMULATIONS” (priority 2017, published 2020)
